On the set-up of data set [1]: method as in doi:10.11895/j.issn.0253-3820.160428. Conditions: cited from earlier work.
Details of data set [2]: method as in doi:10.1016/j.cropro.2009.01.003. Conditions: cited from earlier work.
Data set [3] has as its system anti-CYP mAb 6F1G10. The data set is described as follows: homologous ic-ELISA, hapten 1 coating antigen, mAb 6F1G10. Type of data set: binding, mouse. The note with it: hapten 1 as coating antigen. As to the method:
The ic-ELISA procedure was executed according to previous studies. Each well of the ELISA plate was coated with 100 μL of coating antigen diluted with carbonate buffer (0.05 mol/L, pH 9.6) at 4 °C overnight. After washing three times with phosphate-buffered saline (PBS, 0.01 mol/L, pH 7.4) containing 1‰ Tween-20, the wells were blocked with 200 μL of 5% skim milk powder in PBS at 37 °C for two hours. After the same washing procedure, 50 μL of CYP standard solution and 50 μL of mAb were pipetted into each well and incubated at 37 °C for one hour. After washing five times, 100 μL per well of 0.5‰ horseradish peroxidase-labeled goat anti-mouse IgG antibody in PBS was added and incubated at 37 °C for one hour. After the wells were washed five times, 100 μL per well of fresh substrate solution (0.1 mg/mL 3,3′,5,5′-tetramethylbenzidine and 0.024‰ H2O2 in 0.1 M citrate acid buffer) was added to react at 37 °C for 15 min. Then, 50 μL per well of 0.2 mol/L H2SO4 was used to stop the reaction, and the absorbances were read at 450 nm with a microplate reader.
After five immunizations, the anti-serum of five mice was collected to determine the serum titer. All mouse serum had high titers ranging from 1:64,000 to 1:256,000. […] Then, the sensitivity of these monoclonal antibodies was evaluated by homologous ic-ELISA. […] The subtype of mAb 2G7H9 was determined as IgG2b by a kit. […]
(ELISA stands for enzyme-linked immunosorbent assay.)

Data set [4] relates to antibody against CYP. Further details: method as in PMID 26965575. Conditions: cited from earlier work.

Molecules are shown by their SMILES. Converted amounts (≈) assume the structure as drawn. “And” between values parts separate entries of the source, which are not always exact repeats. Equal values may be shown once.

A word on the IC50: it is the concentration that inhibits the measured activity by half. On to `CC1(C)C(C=C(Cl)Cl)C1C(=O)OC(C#N)c1cccc(Oc2ccccc2)c1` (stereo not shown) [CYP, Cypermethrin], for which the sensitivity in data set [1] is given as 5000 ng/mL. Besides, the minimum detection concentration in data set [2] is on record as 800 ng/mL. In addition, the IC50 in data set [3] was 575 ng/mL (≈ 1380 nM); in data set [4] it was 2.59 ng/mL and 2.6 ng/mL.

These data come from publication PMC9688530, “Development of Ic-ELISA and Colloidal Gold Lateral Flow Immunoassay for the Determination of Cypermethrin in Agricultural Samples” (Biosensors, 2022).
